Source: publication PMC7434893 (British Journal of Cancer, 2020)
Values joined by “and” are separate entries in the source; they are usually repeats but may differ in a detail not shown here. Identical values can stand only once. “Also recorded” adds a separate entry of the source.

Key:
[1] = Food-effect pharmacokinetics, expansion cohort; type: in vivo, human; details: for Cmax / AUC(0-24h) / AUC(0-inf) / AUC(0-t) / Rac / t1/2 / tmax: 600 mg; for Cmax / AUC(0-24h) / AUC(0-inf) / AUC(0-t) / Rac / t1/2: mean (SD); for tmax: median (min, max)
Experimental: Fed patients were administered E7449 immediately after consuming a meal. Patients were then crossed over to the alternate food regimen on day 15.

[2] = test system: advanced solid tumours; assay: Tumour response by RECIST 1.1; type: in vivo, human
Experimental: Tumour assessments (computed tomography, magnetic resonance imaging, photographs and bone scans, as suitable for tumour type), based on Response Evaluation Criteria in Solid Tumors version 1.1, were performed at screening and subsequently every 8 weeks until disease progression.

[3] = test system: MDA-MB-231; assay: 8-day growth inhibition; type: cell-based; details: Breast, MDA-MB-231, 8-day assay
[4] = test system: HCC70; assay: 8-day growth inhibition; type: cell-based; details: Breast, HCC70, 8-day assay
[5] = test system: C3A; assay: 8-day growth inhibition; type: cell-based; details: HCC, 8-day assay
[6] = test system: HEC-6; assay: 8-day growth inhibition; type: cell-based; details: Endometrial, HEC-6, 8-day assay
[7] = test system: SNG-M; assay: 8-day growth inhibition; type: cell-based; details: Endometrial, 8-day assay
[8] = test system: SNG-ll; assay: 8-day growth inhibition; type: cell-based; details: Endometrial, 8-day assay
[9] = test system: HEC-1B; assay: 8-day growth inhibition; type: cell-based; details: Endometrial, 8-day assay
[10] = test system: HEC-1A; assay: 8-day growth inhibition; type: cell-based; details: Endometrial, 8-day assay
[11] = test system: HEC-88nu; assay: 8-day growth inhibition; type: cell-based; details: Endometrial, 8-day assay
[12] = test system: HEC-151; assay: 8-day growth inhibition; type: cell-based; details: Endometrial, HEC-151, 8-day assay
[13] = test system: NCI-H146; assay: 8-day growth inhibition; type: cell-based; details: SCLC, NCI-H146, 8-day assay
[14] = test system: NCI-H524; assay: 8-day growth inhibition; type: cell-based; details: SCLC, NCI-H524, 8-day assay
[15] = test system: NCI-H82; assay: 8-day growth inhibition; type: cell-based; details: SCLC, NCI-H82, 8-day assay
[16] = test system: HL-60; assay: 8-day growth inhibition; type: cell-based; details: Promyelocytic leukemia, HL-60, 8-day assay
[17] = test system: SR; assay: 8-day growth inhibition; type: cell-based; details: B cell lymphoma, 8-day assay
[18] = test system: MC/CAR; assay: 8-day growth inhibition; type: cell-based; details: Myeloma, 8-day assay
[19] = test system: HT; assay: 8-day growth inhibition; type: cell-based; details: DLBCL (GC), 8-day assay
[20] = test system: Jeko-1; assay: 8-day growth inhibition; type: cell-based; details: MCL, Jeko-1, 8-day assay
[21] = test system: Mino; assay: 8-day growth inhibition; type: cell-based; details: MCL, 8-day assay
[22] = test system: THP-1; assay: 8-day growth inhibition; type: cell-based; details: AML, THP-1, 8-day assay
[23] = test system: RPMI-8226; assay: 8-day growth inhibition; type: cell-based; details: Myeloma, RPMI-8226, 8-day assay
[24] = test system: ARH-77; assay: 8-day growth inhibition; type: cell-based; details: Myeloma, ARH-77, 8-day assay
[25] = test system: PARP2; details: read-out: IC50, enzymatic activity of PARP2; cited from earlier work
[26] = test system: PARP; details: 100 mg/kg, preclinical studies; cited from earlier work

With `O=c1[nH]nc2c3c(cccc13)N=C(CN1Cc3ccccc3C1)N2` [E7449] the Cmax ([1]; fasted (n=10)) was 1470 (697) ng/mL, the “AUC(0-24h)” value ([1]; fasted) was 5510 (1730) (n=9) ng·h/mL and the “AUC(0-inf)” value ([1]; fasted) was 4480 (1850) (n=2) ng·h/mL. The “AUC(0-t)” value ([1]; fasted) was 5310 (1780) (n=10) ng·h/mL, the Rac ([1]; fasted) was 1.07 (0.03) (n=2) and the t1/2 ([1]; fasted) was 6.11 (0.74) (n=2) h. For the same compound, the tmax ([1]; fasted) was 2.01 (0.97, 3.00) h, the Cmax ([1]; fed (n=11)) was 863 (563) ng/mL and the “AUC(0-24h)” value ([1]; fed) was 6150 (3280) ng·h/mL. For the same compound, the “AUC(0-inf)” value ([1]; fed) was 6600 (1430) (n=5) ng·h/mL, the “AUC(0-t)” value ([1]; fed) was 6150 (3270) ng·h/mL and the Rac ([1]; fed) was 1.08 (0.12) (n=5). The t1/2 ([1]; fed) was 5.64 (3.17) (n=5) h, the tmax ([1]; fed) was 4.05 (1.07, 8.18) h and the “Increase in AUC (0–24 h or 0-t) with a high-fat meal” value ([1]; 600-mg dose) was ~ 10% and 10%. For the same compound, the “Reduction in Cmax with a high-fat meal” value ([1]; 600-mg dose) was 60%, the “ORR in patients with germline-mutated BRCA” value ([2]; 1/6) was 16.7% and the “Objective response rate (ORR)” value ([2]; 2/41, all cohorts) was 4.9%. The “Patients with BRCA mutations with partial response or stable disease” value ([2]; 3/6) was 50%, the “Best overall response of stable disease, patients” value ([2]; 13 of 41 patients) was 31.7% and the “Median duration of stable disease” value ([2]; 13 patients) was […]. The “Best Overall Response to E7449” value ([2]; BRCA-mutated patient, platinum naïve, breast) was “Progressive Disease”, the “Best Overall Response to E7449” value ([2]; BRCA-mutated patient, platinum naïve, pancreas) was “Stable Disease” and the “Best Overall Response to E7449” value ([2]; BRCA-mutated patient, platinum resistant, breast) was “Progressive Disease”. For the same compound, the “Best Overall Response to E7449” value ([2]; BRCA-mutated patients, platinum sensitive, ovary (one line per patient)) was “Stable Disease; also recorded: Partial Response; also recorded: Progressive Disease”, the “Patients with durable (>23 weeks) stable disease” value ([2]; of 13 patients with SD) was 8 and the “Patients with a decrease in target lesion size” value ([2]; of the 35 patients evaluated for best overall response) was 13. The “Partial responses, patients” value ([2]; ovarian cancer, 1 each in 600-mg and 800-mg cohorts) was 2, the IC50 [3] was 25 µM and the IC50 [4] was 9.3 µM. For the same compound, the IC50 [5] was 2.54 µM, the IC50 [6] was 1.88 µM and the IC50 [7] was 1.36 µM. The IC50 [8] was 5.26 µM, the IC50 [9] was 7.27 µM and the IC50 [10] was 2.96 µM. It also gave an IC50 [11] of 1.14 µM, an IC50 [12] of 1.44 µM and an IC50 [13] of 0.93 µM. The IC50 [14] was 0.69 µM, the IC50 [15] was 0.47 µM and the IC50 [16] was 10.3 µM. The IC50 [17] was 0.26 µM, the IC50 [18] was 2.3 µM and the IC50 [19] was 0.66 µM. For the same compound, the IC50 [20] was 1.9 µM, the IC50 [21] was 3.4 µM and the IC50 [22] was 5.4 µM. The IC50 [23] was 9.3 µM, the IC50 [24] was 3.2 µM and the IC50 [25] was […]. The “PARP inhibition in tumours” value [26] was “sustained PARP inhibition”.
